Laboratory results: US4975430A, “CNQX and its analogs as therapeutics for degenerative neural diseases” (The State of Oregon Acting by and Through The State Board …, priority 1989, dated 1990)

Key:
NMDA receptor [1] = test: NMDA receptor-mediated currents, whole cell patch recordings in dissociated hippocampal neurons; assay type: cell-based, rat; settings: for effect on NMDA receptor-mediated current: 30 uM NMDA
[2] = tested on: non-NMDA receptor for kainate; test: kainate-mediated current in dissociated hippocampal neurons (control experiment); assay type: cell-based, rat; settings: 10 uM CNQX, 20 uM kainate
[3] = target: glycine binding site (NMDA receptor); test: 3-H-glycine binding to frontal cortex membranes; settings: 4 nM 3-H-glycine, washed guinea pig frontal cortex membranes, 30 min on ice; read-out: IC50 for displacement of glycine
non-NMDA receptors = settings: U.S. Pat. No. 4,812,458; cited from earlier work
NMDA receptor [4] = settings: cited from earlier work; for effect on responses produced by NMDA: literature reports (Honore et al., Blake et al., Fletcher, Dryer et al.)

## N#Cc1cc2[nH]c(=O)c(=O)[nH]c2cc1[N+](=O)[O-] [CNQX, 6-cyano-7-nitroquinoxaline 2,3-dione]
NMDA receptor [1]; 10 uM CNQX, 1 uM glycine (FIG. 2A)
  effect on NMDA receptor-mediated current: suppresses the response
NMDA receptor [1]; 10 uM CNQX, 100 uM glycine
  effect on NMDA receptor-mediated current: substantially no effect
NMDA receptor [1]; 30 uM CNQX, 200 uM glycine, reversed by 500 uM NMDA (FIG. 2B)
  effect on NMDA receptor-mediated current: relatively low suppression
NMDA receptor [1]; currents recorded at +40 mv and -40 mV
  dependence of CNQX effects on membrane potential: not dependent on membrane potential
NMDA receptor [1]; varying glycine, 10 uM or 30 uM CNQX (FIG. 1)
  glycine potentiation of NMDA receptor-mediated currents: complete potentiation is not achieved
[2]; 1 uM glycine
  effect on kainate-mediated current: complete suppression
[2]; glycine 1000 uM
  effect of glycine on suppression of kainate-mediated current: no effect on this suppression
[3]
  IC50: 5.7 µM
non-NMDA receptors
  effect on excitation of spinal cord neurons induced by stimulation of non-NMDA receptors: depress the excitation
NMDA receptor [4]
  effect on responses produced by NMDA: little or no effect

## O=c1[nH]c2cc([N+](=O)[O-])c([N+](=O)[O-])cc2[nH]c1=O [DNQX, 6,7-dinitro-quinoxaline-2,3-dione]
non-NMDA receptors
  effect on excitation of spinal cord neurons induced by stimulation of non-NMDA receptors: depress the excitation
NMDA receptor [4]; Birch et al. 1988
  effect on NMDA concentration response curve: shift to the right
NMDA receptor [4]; high antagonist concentrations, Birch et al. 1988
  effect on maximal response to NMDA: decrease in maximal response
NMDA receptor [4]
  effect on responses produced by NMDA: little or no effect
